Experiments:
optic nerve = assay: Oxygen tension of optic nerve (ONPO2), polarographic electrode in the vitreous humour 0.5 mm over the optic disc of anaesthetised pigs; assay type: in vivo, Danish agricultural pigs (landrace)
Procedure: The pig was secured laterally on an operating table and a speculum was placed between the right eyelids. A conjunctival peritomy was performed and 3-0 silk sutures placed under the rectus muscle tendons to immobilise the eye. A sclerotomy was made 2.5 mm behind the limbus in the superonasal quadrant and a cannula placed, through which the polarographic electrode was advanced into the vitreous cavity. The electrode was held in a micromanipulator (Stoelting Inc. USA) and placed in the vitreous humour approximately 0.5 mm over the optic disc in an area not covered by the large vessels. The entire operation was performed using a Zeiss operating microscope and the electrode was placed using an indirect ophthalmoscope or the microscope and a flat corneal contact lens.
A silver-silver chloride reference electrode was placed in the conjunctival sac of the same (right) eye and kept moist with saline. The polarographic oxygen meter consists of a 100 micrometer platinum-iridium electrode inside a 20 gauge needle (Model 761), a silver-silver chloride reference electrode and a chemical microsensor (Model 1251, Diamond Electrotech Inc., Ann Arbor Mich., USA). The recording system was calibrated before and after each experiment in a calibration cell (Diamond Electrotech. Inc.) at 37 degrees Celsius in 0.9% saline using 100% N2, 5.0%02-95%N2 and 20.000%02-80%N2 (provided by AGA Inc. Denmark). The barometric pressure was monitored, and the oxygen tension recordings were adjusted for barometric pressure, and expressed as mmHg.
The experiments were all run with typical indoor illumination (white fluorescent light tubes (Philips TLM 4OW/29RS)). The ambient light intensity at the level of the pig's eye was measured with a Mavolux digital light meter (Gossen GmbH, Germany) and found to be 497 lux or 6 watt per square meter.
Each experiment was begun with the animal breathing 100% oxygen. Once a stable ONPO2 level was obtained the breathing mixture was changed to air, containing 21% oxygen, and a stable level obtained again. In some experiments the breathing mixture was changed to 20.000% O2 followed by 5.19% CO2, 19.9% O2 (N2 to balance), followed by 20.000% O2.
Polarographic oxygen electrodes were placed in the vitreous humour 0.5 mm above the optic disc in anaesthetized pigs. Arterial blood pressure and gasses were monitored and ONPO was recorded continously with various breathing gasses.

[1] = oral; blue field entopic technique; cited from earlier work
[2] = intravenous; cited from earlier work
[3] = cited from earlier work
[4] = intravenous administration; cited from earlier work
[5] = Continuous arterial blood pressure recording in the experimental pigs; assay type: in vivo, Danish agricultural pigs (landrace); conditions: after intravenous injection of 500 mg (Figure 7)
Procedure: Danish agricultural pigs (landrace), 25-33 kg in weight and brought up in specific pathogen free environment, were used. Their treatment was supervised by a veterinarian and followed the decrees of the ARVO Statement for the use of animals in ophthalmic and vision research. All experiments were conducted during daytime. The pigs were anaesthetised with midazolam (dormicum®) and ketamine followed by intravenous application of 250 mg mebumal, fentanylum (Haldid®, Jansen Cilag), 0.5 mg an hour, pancuron bromide (Pavulon®, Organon Technica, Sweden) 16 mg an hour, mebumal (Hospital Pharmacies, Denmark) 50 mg per ml as needed and atropine as needed. The right pupil was dilated with 1% tropicamide eye drops (Mydriacyl® and 2.5% phenylephrine eye drops. A arterial line was placed in a femoral artery for continuous measurement of blood pressure and intermittent blood gas analysis. A venous line was placed in a femoral vein for continuous infusion of the anaesthetics and saline as needed. A rectal thermoprobe provided continuous reading of body temperature.
Arterial blood samples were obtained at regular intervals and arterial PO2, pH and PCO2 were measured with a ABL 605 blood gas analyser (Radiometer, Denmark) (table 1). Arterial blood pressure, electrocardiogram and rectal temperature were monitored continuously and it was verified that these values were within normal limits. […]

| Molecule | ONPO2 in response to breathing 5.19% CO2 (optic nerve; breathing 5.19% CO2 and 19.9% O2 (N2 to balance), n=4, p<0.001) | ONPO2 before breathing 5.19% CO2 (optic nerve; breathing 20% O2, n=4) | macular blood flow [1] | retinal blood flow [2] | flow velocity in the intracranial arteries ([3]; in vivo) | flow velocity in the ophthalmic artery ([3]; in vivo) | ocular pulsatile blood flow ([3]; mainly originating from the choroidal circulation) | cerebral blood flow [4] | ONPO2 after injection (optic nerve; after 500 mg intravenous injection, anaesthetised pigs, mean ± SD) | ONPO2 before injection (optic nerve; baseline before 500 mg intravenous injection, anaesthetised pigs, mean ± SD) | dose dependence of the effect on ONPO2 (optic nerve; intravenous, dorzolamide effect seen with 6 to 500 mg (Figures 4 and 8)) | raised the optic nerve oxygen tension by (optic nerve; summary over the doses given, anaesthetised pigs, n=4 each, p=0.046 (dorzolamide), p=0.005 (acetazolamide)) | arterial blood pressure [5] |
| --- | --- | --- | --- | --- | --- | --- | --- | --- | --- | --- | --- | --- | --- |
| CO2 | 28.9 ± 3.6 mmHg | 20.8 ± 5.6 mmHg | – | – | – | – | – | – | – | – | – | – | – |
| CC(=O)Nc1nnc(S(N)(=O)=O)s1 [acetazolamide] | – | – | no effect | increased | increased | decrease | decrease | increased | 30.9± 10.0 mmHg | 23.6± 9.5 mmHg | dose dependent | 15-35% | transient lowering |

— patent EP1049466B1, “CARBONIC ANHYDRASE INHIBITOR FOR INCREASING OXYGEN TENSION IN THE OPTIC NERVE AND RETINA” (Stefansson, Einar, priority 1998, dated 1999)
